Results reported in US20220079855A1, “GINGSENG-BASED COSMETIC COMPOSITION” (L'OREAL, priority 2018, published 2022).

Test system: stratum corneum of viable human skin (abdominal or breast reduction plastic surgery)
Assay: Desquamating activity: decrease in cohesion of the stratum corneum, histological score on excised human skin maintained under survival conditions
Type: cell-based
Conditions: score 0-4; for Score 2: (mean ± sd, n = 6): Table 2, applied D0 and D1, analysed D2; for Score (mean ± sd, n = 6): Table 3 (white ginseng study)
Description: The study aims to detect the desquamating potential of the combination of active agents according to the invention in simplex solution by observation of the cohesion of the stratum corneum.
The keratolytic effect on excised skin maintained under survival conditions […] was evaluated. The study was carried out on viable human skin resulting from abdominal or breast reduction plastic surgery (6 donors). These skin fragments were placed in inserts, comprising a porous membrane ([…]), themselves positioned on culture wells containing a culture medium as described in Boisnic et al., Journal of Cosmetics and laser therapy, 2010:12:25-31.
The protocol consists in applying the test solutions to skin samples maintained under survival conditions. The products tested are applied in a proportion of 15 μl per 1 cm^2 sample and are not rinsed off. Application is carried out twice, at D0 and then, 24 hours later, at D1. The morphology of the stratum corneum is analysed 48 hours after the first application, at D2, on a biopsy.
The solutions applied are the following: • compound A (plant active agent according to the invention) alone at 0.1% and 0.5% by weight of active material in water, and • compound B alone at 0.3% by weight in water • combination of A at 0.1% and B at 0.3% by weight in water • combination of A at 0.5% and B at 0.3% by weight in water.
By way of comparison, no solution is applied to a sample, referred to as a control sample, and a solution of glycolic acid at 30% by weight in water is applied to another sample. 6 samples were used for each of the tests (controls, compound A and compound B and combinations of A and B).
The histological analysis of the horny layer is carried out on a skin section after staining with hemalaun-eosin (magnification 400). The decrease in the cohesion of the stratum corneum is expressed in the form of a score: • score 0: absence of modification • score 1: slight decrease • score 2: moderate decrease • score 3: large decrease • score 4: very large decrease with exfoliation
A paired Student test (p<0.05) was carried out in order to evaluate the significance of the difference with respect to the control.
The protocol described in Example 2 was reproduced by considering a plant active agent not in accordance with the invention, namely white ginseng which is devoid of ginsenoside Rg3. This active agent considered is the product Ginseng ES, distributed by the company Greentech.

Row | SMILES | Score 2: (mean ± sd, n = 6) (Glycolic acid at 30% in H2O) | Score (mean ± sd, n = 6) (Glycolic acid at 30% in H2O) | Score 2: (mean ± sd, n = 6) (Compound B at 0.3% in H2O) | Score (mean ± sd, n = 6) (Compound B at 0.3% in H2O)
1 | O=C(O)CO [Glycolic acid, glycolic acid] | 3.10 ± 0.12 | 2.14 ± 0.41 |  | 
2 | CCCCCCCC(=O)c1ccc(O)c(C(=O)O)c1 [Compound B, 5-n-Octanoylsalicylic acid] |  |  | 2.14 ± 0.52 | 1.75 ± 0.19
